Reference: US5124083A, “3-substituted and 3,3-disubstituted 4-oxoretinoic acids and their esters” (Southern Research Institute, priority 1990, dated 1992)
Read-outs that look alike come from different tables or passages of the source.

Tests used:
[1] = test system: tracheas obtained from vitamin A-deficient hamsters; conditions: value taken from Newton et al.; read-out: ED50, hamster trachea organ culture assay; cited from earlier work
ornithine decarboxylase = test: Ornithine decarboxylase assay (reduction of TPA-induced ODC activity in mouse skin); type: in vivo; conditions: for Ornithine Decarboxylase Activity, Average % of Control Group: TPA-induced ODC, mouse skin, nanomoles of carbon dioxide per milligram of protein per half hour; for ODC activity as % of the ODC activity in the control mice, summary range: TPA-induced, summary of Table III in text
Description: A bioassay in vivo for activity in the prevention of carcinogen-induced cancer is based on the reduction by a retinoid of the amount of ornithine decarboxylase (ODC) induced in mouse skin by the tumor promoter 12-O-tetradecanoylphorbol 13-acetate (TPA). Verma et al. (Cancer Research, Vol. 38, pages 793-801, 1978), reported that "application of the potent tumor-promoting agent 12-O-tetradecanoylphorbol 13-acetate (TPA) to mouse skin leads to a rapid and transient induction of epidermal ornithine decarboxylase activity". They state, further, that "inhibition of this enzyme activity by retinoids may be a simple and rapid in vivo test for assessing the potential prophylactic activity of new synthetic retinoids". All of the tested 4-oxoretinoid analogues reduced TPA-induced ODC activity. The compounds of Examples 2-4, 8, 11, 17, 18, and 20-23 reduced ODC activity to 22-47% of the ODC activity in the control mice and are, therefore, very active in this assay for cancer chemopreventive activity.
Ornithine Decarboxylase Assay
Assays for the reduction by 4-oxoretinoids of ornithine decarboxylase activity induced by 12-O-tetradecanoylphorbol 13-acetate (TPA) were performed by the procedure of Verma et al., Cancer Research, Vol. 38, pages 793-801 (1978).

skin papillomas = test: Mouse antipapilloma assay (DMBA-TPA skin papillomas); type: in vivo; parameters: Average Number of Skin Papillomas/Mouse as % of No. of Papillomas/Mouse in the DMBA-TPA Control Group of Mice: concentration or dose not given beside the values; conditions: for Average Number of Skin Papillomas/Mouse as % of No. of Papillomas/Mouse in the DMBA-TPA Control Group of Mice: DMBA-initiated, TPA-promoted mouse skin; for Reduction of papilloma formation, summary range: range over the six most active retinoids; for Papilloma formation as % of papilloma formation in untreated control mice, summary range: summary of Table IV
Description: Application of the carcinogen DMBA to mouse skin followed by application of the tumor promoter TPA causes the formation of papillomas. Certain retinoids applied to the same area of mouse skin reduce or prevent papilloma formation (e.g. H. Mayer, W. Bollag, R. Hanni, and R. Ruegg, Experientia, Vol 34, pages 1105-1119, 1978; R. K. Boutwell and A. K. Verma, Pure and Applied Chemistry, Vol. 51, pages 857-866, 1979). The antipapilloma assay is a direct test of the capability of a retinoid to prevent tumor formation in vivo. It has been used to select retinoids for clinical development. The tested retinoids reduced papilloma formation to 27-83% of papilloma formation in untreated control mice. […] The number of papillomas in mice treated with either of these six retinoids was 27-40% of the number of papillomas on untreated mice; or, differently expressed, papilloma formation was reduced by 60-73%.
In this assay, tumors are initiated in mice by applying the carcinogen DMBA to the skin of mice and subsequently applying the promoter TPA. The method is that of Verma et al., Cancer Research, Vol. 39, pages 419-425, 1979.

[2] = test system: tracheas obtained from vitamin A-deficient hamsters; test: Hamster trachea organ culture assay (reversal of squamous metaplasia and keratinization); type: cell-based; conditions: for EC50: Mesocricetus auratus, reversal of keratinization, vitamin A-deficient hamster trachea in culture, read-out: ED50, hamster trachea organ culture assay; for Activity in hamster-trachea assay compared with the retinamides of Table II: compared with retinamides in lower part of Table II
Description: Some of these 4-oxoretinoic acid analogues were evaluated in the hamster-trachea organ-culture assay described in Clamon et al., Nature, Vol. 250, pages 64-66, 1974; Sporn et al., Nature, Vol. 263, pages 110-113, 1976; and Newton et al., Cancer Res., Vol. 40, pages 3413-3425, 1980. This bioassay is specific for retinoids and assesses the capacity of retinoids to reverse keratinization in vitamin A-deficient hamster trachea in culture. Therefore, it is a measure of the capacity of a retinoid to control differentiation of epithelial cells, and "it is believed to have significant predictive value for the potential use of a new retinoid for prevention of epithelial cancer" (Newton et al., Cancer Res., Vol. 40, pages 3413-3425, 1980). (See Example 25). Also, data obtained by Newton et al., (Cancer Res., Vol. 40, pages 3413-3425, 1980) in assays of six all-trans or 13-cis retinamides are included in Table II for comparison.
Hamster Trachea Organ Culture Assay
4-Oxoretinoids were evaluated for their capacity to reverse squamous metaplasia and keratinization in organ cultures of tracheas obtained from vitamin A-deficient hamsters. The methods and procedures were those described by Sporn and co-workers (Clamon et al. and Newton et al., loc. cit.).

[3] = test system: F9 Embryonal Carcinoma Cells; test: Induction of differentiation of F9 embryonal carcinoma cells (plasminogen activator release); type: cell-based; conditions: Mus musculus, 96 h, by release of plasminogen activator, 4 days, read-out: Differentiation of F9 Embryonal Carcinoma Cells ED50
Description: Induction of differentiation of cancer cells is a potential mode of cancer chemoprevention. […] Elevated release of plasminogen activator by F9 cells in the presence of retinoids is a marker for differentiation. Induction of differentiation of F9 cells by several of the retinoids of this invention was evaluated, and the results are summarized in Table I (Example 24) as values of ED50. All of the tested 4-oxoretionoic acid analogues induce differentiation at low concentrations (ED50 =[…] -10^-10 molar) and, therefore, are very effective inducers of differentiation of mouse F9 embryonal carcinoma cells. […] Under the conditions of this assay, ester derivatives might be hydrolyzed partially to the carboxylic acids.
Assay for Induction of Differentiation of Cancer Cells to Normal Cells
Evaluation of the differentiation potential of 4-oxoretinoids was carried out with an embryonal carcinoma cell line, F9. Elevation of plasminogen activator release by F9 cells in the presence of retinoids is a marker for inducing differentiation into parietal endoderm (Strickland and Mahdavi, loc. cit.; Strickland and Sawey, loc. cit.). F9 cells were grown at a density of 1×10^5 cells/mL in the presence or absence of […], 10^-8, 10^-9, 10^-10, and 10^-11 or molar retinoids for 4 days. Aliquots (20 μL) of the harvest fluid were mixed with 0.13 μM plasminogen, 0.3 mM H-D-Val-Leu-Lys-p-nitroaniline (a synthetic substrate of plasmin), 0.1% Tween 80, and 25 μg of fibrinogen fragments in a final volume of 0.2 mL of Tris-HCl, pH 7.5. After incubation for 4 hours at 25° C., the generation of p-nitroaniline was measured by absorbance at 405 nm. The average absorbencies from duplicate experiments were plotted (semilog plots) versus concentration (molarity). The ED50 values were determined by finding the midpoint between the maximal and minimal absorbance values.
Induction of Differentiation of Cancer Cells
^a ED50 is the molar concentration of the retinoid that causes
50% induction of differentiation of the carcinoma cells as measured by th
release of plasminogen activator.

[4] = molar concentration causing 50% induction of differentiation

SMILES	EC50 [1]	Ornithine Decarboxylase Activity, Average % of Control Group (ornithine decarboxylase)	Average Number of Skin Papillomas/Mouse as % of No. of Papillomas/Mouse in the DMBA-TPA Control Group of Mice (skin papillomas)	Reduction of papilloma formation, summary range (skin papillomas)	Papilloma formation as % of papilloma formation in untreated control mice, summary range (skin papillomas)	EC50 [2]	EC50 [3, 4]	ODC activity as % of the ODC activity in the control mice, summary range (ornithine decarboxylase)	Activity in hamster-trachea assay compared with the retinamides of Table II [2]	EC50 ([3]; average of two determinations, 50% induction of differentiation)
CC1=C(/C=C/C(C)=C/C=C/C(C)=C\C(=O)NCCO)C(C)(C)CCC1 [13-Cis-N-(2-hydroxyethyl)-retinamide]	0.3 nM	–	–	–	–	–	–	–	–	–
CCNC(=O)\C=C(C)/C=C/C=C(C)/C=C/C1=C(C)CCCC1(C)C [13-Cis-N-ethylretinamide]	0.3 nM	–	–	–	–	–	–	–	–	–
COC(=O)/C=C(C)/C=C/C=C(C)/C=C/C1=C(C)C(=O)C(C)CC1(C)C (stereo not shown) [Example 2, Methyl 3-Methyl-4-oxoretinoate]	–	33 % of Control Group	27%	60-73%	27-40%	4 nM	2 nM	–	–	–
COC(=O)/C=C(C)/C=C/C=C(C)/C=C/C1=C(C)C(=O)C(CC=Cc2ccccc2)CC1(C)C (stereo not shown) [Example 3, Methyl 3-Cinnamyl-4-oxoretinoate]	–	31 % of Control Group	–	–	–	–	–	–	–	–
CCC1CC(C)(C)C(/C=C/C(C)=C/C=C/C(C)=C/C(=O)OC)=C(C)C1=O (stereo not shown) [Example 4, Methyl 3-Ethyl-4-oxoretinoate]	–	31 % of Control Group	83%	–	–	–	–	–	–	–
C=CCC1CC(C)(C)C(/C=C/C(C)=C/C=C/C(C)=C/C(=O)OC)=C(C)C1=O (stereo not shown) [Example 7, Methyl 4-Oxo-3-(2-propenyl)retinoate]	–	56 % of Control Group	42%	–	–	–	–	–	–	–
C#CCC1CC(C)(C)C(/C=C/C(C)=C/C=C/C(C)=C/C(=O)OC)=C(C)C1=O (stereo not shown) [Example 8, Methyl 4-Oxo-3-(2-propynyl)retinoate]	–	35 % of Control Group	40%	60-73%	27-40%	–	1.5 nM	22-47 % of the ODC activity in the control mice	–	–
COC(=O)/C=C(C)/C=C/C=C(C)/C=C/C1=C(C)C(=O)C(Cc2ccccc2)CC1(C)C (stereo not shown) [Example 9, Methyl 4-Oxo-3-(phenylmethyl)retinoate]	–	77 % of Control Group	–	–	–	11 nM	–	–	–	–
COC(=O)/C=C(C)/C=C/C=C(C)/C=C/C1=C(C)C(=O)C(C)(C)CC1(C)C [Example 11, Methyl 3,3-Dimethyl-4-oxoretinoate]	–	22 % of Control Group	27%	60-73%	27-40%	0.3 nM	0.9 nM	22-47 % of the ODC activity in the control mice	comparable	–
CC1=C(/C=C/C(C)=C/C=C/C(C)=C/C(=O)O)C(C)(C)CC(C)C1=O (stereo not shown) [Example 17, 3-Methyl-4-oxoretinoic Acid]	–	33 % of Control Group	32%	60-73%	27-40%	2 nM	0.9 nM	22-47 % of the ODC activity in the control mice	–	–
CCC1CC(C)(C)C(/C=C/C(C)=C/C=C/C(C)=C/C(=O)O)=C(C)C1=O (stereo not shown) [Example 18, 3-Ethyl-4Oxoretionoic Acid]	–	40 % of Control Group	57%	–	–	–	5 nM	22-47 % of the ODC activity in the control mice	–	–
C=CCC1CC(C)(C)C(/C=C/C(C)=C/C=C/C(C)=C/C(=O)O)=C(C)C1=O (stereo not shown) [Example 19, 4-Oxo-3-(2-propenyl)retinoic Acid]	–	68 % of Control Group	47%	–	–	–	0.7 nM	–	–	–
C#CCC1CC(C)(C)C(/C=C/C(C)=C/C=C/C(C)=C/C(=O)O)=C(C)C1=O (stereo not shown) [Example 20]	–	47 % of Control Group	64%	–	–	0.2 nM	0.6 nM	–	comparable	–
CC1=C(/C=C/C(C)=C/C=C/C(C)=C/C(=O)O)C(C)(C)CC(Cc2ccccc2)C1=O (stereo not shown) [Example 21]	–	42 % of Control Group	–	–	–	11 nM	0.8 nM	–	–	–
CC1=C(/C=C/C(C)=C/C=C/C(C)=C/C(=O)O)C(C)(C)CC(CC=Cc2ccccc2)C1=O (stereo not shown) [Example 22, 3-Cinnamyl-4-oxoretinoic Acid]	–	23 % of Control Group	39%	60-73%	27-40%	–	3.5 nM	–	–	–
CC1=C(/C=C/C(C)=C/C=C/C(C)=C/C(=O)O)C(C)(C)CC(C)(C)C1=O [Example 23, 3.3-Dimethyl-4-Oxoretinoic Acid]	–	26 % of Control Group	27%	60-73%	27-40%	–	–	–	–	0.23 nM
